These results are taken from patent US20250228239A1, “MOLECULES HAVING PESTICIDAL UTILITY, AND INTERMEDIATES, COMPOSITIONS, AND PROCESSES, RELATED THERETO” (priority 2024, published 2025).

The structures appear in SMILES notation. Read-outs that look alike come from different tables or passages of the source.

For assay [1], the system named is Beet Armyworm (Spodoptera exigua, LAPHEG). Kind of assay: Bioassays on Beet Armyworm (BAW), 128-well diet tray assay. It counts as in vivo. Conditions: Spodoptera exigua. The essentials: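 Test molecule was dissolved in 90:10 acetone-water and applied at 50 μg/cm^2 onto artificial diet in eight wells, then dried. Second instar larvae, one to five per well, were added, and trays were kept vented at 25° C. with a 14:10 photoperiod for five to seven days before mortality was recorded.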

The subject of assay [2] is Cabbage Looper (Trichoplusia ni, TRIPNI). Nature of the assay: Bioassays on Cabbage Looper (CL), 128-well diet tray assay. The class given is in vivo. Conditions: Trichoplusia ni. In short, it runs like this: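 One to five second-instar larvae per well on artificial diet surface-treated with 50 μg/cm^2 test molecule (applied in 90:10 acetone-water, dried). Held 5–7 days at 25° C, 14:10 light-dark; percent mortality recorded per well and averaged over eight wells.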

Setting [3] is: Beet Armyworm, Table ABC / ABC-DP rating, read-out: BAW rating.
Setting [4] is: Cabbage Looper, Table ABC / ABC-DP rating, read-out: CL rating.
[5] abbreviates: Table ABC: Biological Results, species BAW, read-out: BAW.
Where [6] appears, read: Table ABC: Biological Results, species CL, read-out: CL.
Where [7] appears, read: Beet Armyworm, rating class, read-out: BAW.
Where [8] appears, read: Cabbage Looper, rating class, read-out: CL.

Turning to `O=C(NCC(F)(F)C(F)(F)F)c1cc(NC(=O)[C@H]2[C@H](c3ccc(F)c(Cl)c3)C2(Cl)Cl)cc(Cl)c1F` (relative stereo) [F2046, trans-3-Chloro-5-(2,2-dichloro-3-(3-chloro-4-fluorophenyl)cyclopropane-1-carboxamido)-2-fluoro-N-(2,2,3,3,3-pentafluoropropyl)benzamide], the pest or weed control at 50 µg/cm2 in assay [1] (setting [3]) and in assay [2] (setting [4]) was 50 to 100% throughout.
Turning to `CC(C)(C)C(=O)Nc1c(F)ccc(NC(=O)c2cc(NC(=O)[C@H]3[C@H](c4ccc(F)c(C(F)(F)F)c4)C3(Cl)Cl)ccc2Cl)c1F` [F1274, 2-Chloro-5-((1R,3R)-2,2-dichloro-3-(4-fluoro-3-(trifluoromethyl)phenyl)cyclopropane-1-carboxamido)-N-(2,4-difluoro-3-pivalamidophenyl)benzamide], the pest or weed control at 50 µg/cm2 in assay [1] (setting [5]) and in assay [2] (setting [6]) was 50 to 100% each time.
`O=C(NNCc1cc(F)ccc1F)c1cc(NC(=O)[C@H]2[C@H](c3cc(Cl)cc(Cl)c3)C2(Cl)Cl)ccc1Cl` (relative stereo) [F2546, trans-2,2-Dichloro-N-(4-chloro-3-(2-(2,5-difluorobenzyl)hydrazine-1-carbonyl)phenyl)-3-(3,5-dichlorophenyl)cyclopropane-1-carboxamide]: the pest or weed control at 50 µg/cm2 in assay [1] (setting [3]) and in assay [2] (setting [4]) was 50 to 100% each time.
Turning to `CC(=O)Nc1ccc(F)c(NC(=O)c2cc(NC(=O)[C@H]3[C@H](c4ccc(Cl)c(Cl)c4)C3(Cl)Cl)cc(F)c2Cl)c1F` [F1522, N-(3-Acetamido-2,6-difluorophenyl)-2-chloro-5-((1R,3R)-2,2-dichloro-3-(3,4-dichlorophenyl)cyclopropane-1-carboxamido)-3-fluorobenzamide], the pest or weed control at 50 µg/cm2 in assay [1] (setting [7]) and in assay [2] (setting [8]) was 50 to 100% each time.
On to `O=C(Nc1cc(F)c(NC(=O)C(F)(F)F)c(F)c1)c1cc(NC(=O)[C@H]2[C@H](c3ccc(Cl)c(Cl)c3)C2(Cl)Cl)ccc1Cl` (relative stereo) [F1120, trans-2-Chloro-5-(2,2-dichloro-3-(3,4-dichlorophenyl)cyclopropane-1-carboxamido)-N-(3,5-difluoro-4-(2,2,2-trifluoroacetamido)phenyl)benzamide], for which the pest or weed control at 50 µg/cm2 in assay [1] (setting [5]) and in assay [2] (setting [6]) was 50 to 100% each time.
Turning to `N#Cc1cc(NC(=O)c2cc(NC(=O)[C@H]3[C@H](c4ccc(F)c(Cl)c4)C3(Cl)Cl)ccc2Cl)ccc1NC(=O)C(F)(F)F` (relative stereo) [F1388, trans-2-Chloro-N-(3-cyano-4-(2,2,2-trifluoroacetamido)phenyl)-5-(2,2-dichloro-3-(3-chloro-4-fluorophenyl)cyclopropane-1-carboxamido)benzamide], the pest or weed control at 50 µg/cm2 in assay [1] (setting [5]) and in assay [2] (setting [6]) was 50 to 100% in each case.
`O=C(Nc1cc(NC(=O)C(F)F)c(F)cc1F)c1cc(NC(=O)[C@H]2[C@H](c3cc(Cl)c(Cl)c(Cl)c3)C2(Cl)Cl)ccc1Cl` [F1518, 2-Chloro-5-((1R,3R)-2,2-dichloro-3-(3,4,5-trichlorophenyl)cyclopropane-1-carboxamido)-N-(5-(2,2-difluoroacetamido)-2,4-difluorophenyl)benzamide]: the pest or weed control at 50 µg/cm2 in assay [1] (setting [7]) and in assay [2] (setting [8]) was 50 to 100% in each case.
Regarding `Nc1cc(NC(=O)c2cc(NC(=O)[C@H]3[C@H](c4ccc(Cl)c(Cl)c4)C3(Cl)Cl)cc(F)c2Cl)c(F)cc1F` [F1396, N-(5-Amino-2,4-difluorophenyl)-2-chloro-5-((1R,3R)-2,2-dichloro-3-(3,4-dichlorophenyl)cyclopropane-1-carboxamido)-3-fluorobenzamide], the pest or weed control at 50 µg/cm2 in assay [1] (setting [7]) and in assay [2] (setting [8]) was 50 to 100% each time.
As to `O=C(NCC(F)(F)F)c1cc(NC(=O)[C@H]2[C@H](c3ccc(F)c(Cl)c3)C2(Cl)Cl)cc(F)c1F` (relative stereo) [F2049, trans-5-(2,2-Dichloro-3-(3-chloro-4-fluorophenyl)cyclopropane-1-carboxamido)-2,3-difluoro-N-(2,2,2-trifluoroethyl)benzamide], the pest or weed control at 50 µg/cm2 in assay [1] (setting [3]) and in assay [2] (setting [4]) was 50 to 100% each time.
In the case of `CC(=O)Nc1cc(NC(=O)c2cc(NC(=O)[C@H]3[C@H](c4cc(Cl)c(Cl)c(Cl)c4)C3(Cl)Cl)cc(C)c2Cl)c(F)cc1F` [F1547], the pest or weed control at 50 µg/cm2 in assay [1] (setting [7]) and in assay [2] (setting [8]) was 50 to 100% each time.
Regarding `O=C(Nc1cc(F)c(NC(=O)C(F)F)c(F)c1)c1cc(NC(=O)[C@H]2[C@H](c3ccc(Cl)c(Cl)c3)C2(Cl)Cl)ccc1Cl` (relative stereo) [F1122, trans-2-Chloro-5-(2,2-dichloro-3-(3,4-dichlorophenyl)cyclopropane-1-carboxamido)-N-(4-(2,2-difluoroacetamido)-3,5-difluorophenyl)benzamide], the pest or weed control at 50 µg/cm2 in assay [1] (setting [5]) and in assay [2] (setting [6]) was 50 to 100% throughout.
On to `O=C(Nc1cc(NC(=O)C(F)F)c(F)cc1F)c1cc(NC(=O)[C@H]2[C@H](c3ccc(F)c(C(F)(F)F)c3)C2(Cl)Cl)ccc1Cl` [F1540, 2-Chloro-5-((1R,3R)-2,2-dichloro-3-(4-fluoro-3-(trifluoromethyl)phenyl)cyclopropane-1-carboxamido)-N-(5-(2,2-difluoroacetamido)-2,4-difluorophenyl)benzamide], for which the pest or weed control at 50 µg/cm2 in assay [1] (setting [7]) and in assay [2] (setting [8]) was 50 to 100% throughout.
On to `O=C(NCC(F)(F)F)c1cc(NC(=O)[C@H]2[C@H](c3ccc(F)c(F)c3)C2(Cl)Cl)ccc1Cl` [F2099, 2-Chloro-5-((1R,3R)-2,2-dichloro-3-(3,4-difluorophenyl)cyclopropane-1-carboxamido)-N-(2,2,2-trifluoroethyl)benzamide], for which the pest or weed control at 50 µg/cm2 in assay [1] (setting [3]) and in assay [2] (setting [4]) was 50 to 100% each time.
Turning to `O=C(Nc1ccc(F)cc1)c1cc(NC(=O)[C@H]2[C@H](c3ccc(F)c(Cl)c3)C2(Cl)Cl)cc(F)c1F` (relative stereo) [F1208, trans-5-(2,2-Dichloro-3-(3-chloro-4-fluorophenyl)cyclopropane-1-carboxamido)-2,3-difluoro-N-(4-fluorophenyl)benzamide], the pest or weed control at 50 µg/cm2 in assay [1] (setting [5]) and in assay [2] (setting [6]) was 50 to 100% each time.
As to `CN(NC(=O)c1cc(NC(=O)[C@H]2[C@H](c3cc(Cl)cc(Cl)c3)C2(Cl)Cl)ccc1Cl)C(=O)CC(F)(F)F` (relative stereo) [F2533, trans-2,2-Dichloro-N-(4-chloro-3-(2-methyl-2-(3,3,3-trifluoropropanoyl)hydrazine-1-carbonyl)phenyl)-3-(3,5-dichlorophenyl)cyclopropane-1-carboxamide], the pest or weed control at 50 µg/cm2 in assay [1] (setting [3]) and in assay [2] (setting [4]) was 50 to 100% each time.
For `Cc1cc(F)c(NC(=O)c2cc(NC(=O)[C@H]3[C@H](c4ccc(F)c(Cl)c4)C3(Cl)Cl)ccc2Cl)cc1N` [F1135, N-(5-Amino-2-fluoro-4-methylphenyl)-2-chloro-5-((1R,3R)-2,2-dichloro-3-(3-chloro-4-fluorophenyl)cyclopropane-1-carboxamido)benzamide], the pest or weed control at 50 µg/cm2 in assay [1] (setting [5]) and in assay [2] (setting [6]) was 50 to 100% in each case.
On to `CC(=O)Nc1ccc(F)c(NC(=O)c2cc(NC(=O)[C@H]3[C@H](c4ccc(F)c(C(F)(F)F)c4)C3(Cl)Cl)cc(F)c2F)c1F` [F1576, N-(3-Acetamido-2,6-difluorophenyl)-5-((1R,3R)-2,2-dichloro-3-(4-fluoro-3-(trifluoromethyl)phenyl)cyclopropane-1-carboxamido)-2,3-difluorobenzamide], for which the pest or weed control at 50 µg/cm2 in assay [1] (setting [7]) and in assay [2] (setting [8]) was 50 to 100% throughout.
For the compound `Cc1cc(NC(=O)[C@H]2[C@H](c3ccc(F)c(C(F)(F)F)c3)C2(Cl)Cl)cc(C(=O)Nc2cc(NC(=O)C(F)(F)F)c(F)cc2F)c1Cl` [F1501, 2-Chloro-5-((1R,3R)-2,2-dichloro-3-(4-fluoro-3-(trifluoromethyl)phenyl)cyclopropane-1-carboxamido)-N-(2,4-difluoro-5-(2,2,2-trifluoroacetamido)phenyl)-3-methylbenzamide], the pest or weed control at 50 µg/cm2 in assay [1] (setting [7]) and in assay [2] (setting [8]) was 50 to 100% in each case.
Consider `O=C(Nc1ccc(F)c(NC(=O)C(F)(F)F)c1F)c1cc(NC(=O)[C@H]2[C@H](c3cc(Cl)c(F)c(Cl)c3)C2(Cl)Cl)ccc1Cl` (relative stereo) [F1332, trans-2-Chloro-5-(2,2-dichloro-3-(3,5-dichloro-4-fluorophenyl)cyclopropane-1-carboxamido)-N-(2,4-difluoro-3-(2,2,2-trifluoroacetamido)phenyl)benzamide], for which the pest or weed control at 50 µg/cm2 in assay [1] (setting [5]) and in assay [2] (setting [6]) was 50 to 100% in each case.
For `O=C(CC(F)(F)F)Nc1c(F)ccc(NC(=O)c2cc(NC(=O)[C@H]3[C@H](c4ccc(F)c(C(F)(F)F)c4)C3(Cl)Cl)ccc2Cl)c1F` [F1683, 2-Chloro-5-((1R,3R)-2,2-dichloro-3-(4-fluoro-3-(trifluoromethyl)phenyl)cyclopropane-1-carboxamido)-N-(2,4-difluoro-3-(3,3,3-trifluoropropanamido)phenyl)benzamide], the pest or weed control at 50 µg/cm2 in assay [1] (setting [7]) and in assay [2] (setting [8]) was 50 to 100% throughout.
Turning to `O=C(Nc1ccc(Br)cc1F)c1cc(NC(=O)[C@H]2[C@H](c3cc(Cl)cc(Cl)c3)C2(Cl)Cl)ccc1Cl` (relative stereo) [F1306, trans-N-(4-Bromo-2-fluorophenyl)-2-chloro-5-(2,2-dichloro-3-(3,5-dichlorophenyl)cyclopropane-1-carboxamido)benzamide], the pest or weed control at 50 µg/cm2 in assay [1] (setting [5]) and in assay [2] (setting [6]) was 50 to 100% each time.
